Assay results reported in patent US20230044690A1, “PROGESTERONE FORMULATION TO TRIGGER OVULATION AND PROVIDE LUTEAL PHASE SUPPORT” (AUGUSTA UNIVERSITY RESEARCH INSTITUTE, INC., priority 2019, published 2023).
Read-outs that look alike come from different tables or passages of the source. Blank lines part the entries; values can stand above or below the compound they belong to.

Key:
[1] = circulating progestins, compared by activity with 0.5 ng preovulatory progesterone; cited from earlier work
[2] = system: ovulation; format: in vivo, human
Protocol: For the natural cycle, they were monitored with ultrasound at the base line on day 2, and then day 12 and 13. At day 13 of the cycle, their leading follicle had reached a size of 17 mm (FIG. 4B), P4 was 1.5 ng/ml and LH was 5 IU/L. They were given an intramuscular injection of 5 mg of progesterone. The protocol is outlined in FIG. 4A
Failure of the follicle to rupture was attributed to its size (17 mm) at the time of the trigger.

[3] = system: ovulation; format: in vivo, human; settings: case 3
Protocol: A person, G2 P1, SAB1, height 152 cm, weight 164 lb was referred for infertility treatment following 6-month inability to conceive naturally. Patient's medical history was significant for PCOS and subclinical hypothyroidism, for which they were taking levothyroxine […]. Patient had menarche at 12, average period duration of 45 days, average menses duration of 6 days. Patient's fallopian tubes were both patent per HSG, with a normal uterine cavity (FIG. 6E). Their AMH was 9.3 ng/ml.
The medication regiment, at the beginning of the third attempt was the same as in the previous attempt when the patient became pregnant with 5 mg of Letrozole in addition to 100 mg CC for 5 days starting on the 3rd day of their period. […] Before the trigger […] P4 and LH were 0.62 ng/ml and 4.26 IU/L respectively (Table 3) and ultrasound identified three follicles 22, 22 and 19 mm (FIG. 6C-6D).
Seven days after the trigger shot, P4 level was 38.39 ng/ml at which time the patient was started on 200 mg progesterone vaginal suppository daily.

[4] = system: gonadotropins surge; assay: Reported progesterone dose and pharmacodynamics for induction of a gonadotropins surge (Leyendecker et al, 1972); format: in vivo, human; settings: about 5 mg of progesterone in sesame oil, intramuscular injection; estimate from Leyendecker 1972
Protocol: The lowest dose of progesterone reported for induction of a gonadotropins surge is […] injected intramuscularly (Leyendecker, et al, 1972).
Consequently, the target cumulative progesterone level in circulation was 1 ng/ml. Based on pharmacodynamics of progesterone (Leyendecker, et al, 1972), it was estimated that in order to achieve circulating progesterone level at its peak (120 minutes post injection) 1 ng/ml, an additional […] was needed to add to the patient's own 0.63 ng/ml. This would be achieved with about 5 mg of progesterone in sesame oil for intramuscular injection. […] Furthermore, progesterone continued to rise to the expected level several days later. The patient's P4 level on day 5 post trigger was excellent and additional supplementation with progesterone thereafter was given only for an abundance of caution.

[5] = system: gonadotropins surge; settings: cited from earlier work

Structure (SMILES): C#CC1(O)CC[C@H]2[C@@H]3CCC4=CC(=O)CC[C@@H]4[C@H]3CC[C@@]21CC (mixture of isomers) [D/L norgestrel]
Consensus value [1]: 0.075 mg

Structure (SMILES): CC(=O)[C@H]1CC[C@H]2[C@@H]3C=CC4=CC(=O)CC[C@@]4(C)[C@@H]3CC[C@]12C [Dydrogesterone]
Consensus value [1]: 10 mg

Structure (SMILES): CC(=O)O[C@]1(C(C)=O)CC[C@H]2[C@@H]3C[C@H](C)C4=CC(=O)CC[C@]4(C)[C@H]3CC[C@@]21C [Medroxyprogesterone acetate]
Consensus value [1]: 5 mg

Structure (SMILES): C#C[C@]1(O)CC[C@H]2[C@@H]3CCC4=CC(=O)CC[C@@H]4[C@H]3CC[C@@]21C [Norethindrone]
Consensus value [1]: 0.35 mg

P4 ([2]; female, human, in vivo): 1.5 ng/mL | Estimated additional circulating progesterone level at its peak [4]: 0.35 ng/mL
Structure (SMILES): CC(=O)[C@H]1CC[C@H]2[C@@H]3CCC4=CC(=O)CC[C@]4(C)[C@H]3CC[C@]12C [progesterone]
Circulating hormone level LH ([2]; 0 hrs after trigger injection, 5 mg progesterone i.m., case 1): 10.9 | Follicle rupture ([2]; 17 mm leading follicle at trigger, 5 mg progesterone i.m., case 1): failed to rupture | Circulating hormone level LH ([2]; 10 hrs after trigger injection, 5 mg progesterone i.m., case 1): 28.4 | Circulating hormone level LH ([2]; 49 hrs after trigger injection, 5 mg progesterone i.m., case 1): 11.36 | Time until LH was at the ovulation level ([2]; after 5 mg progesterone i.m., case 1): ≤ 12 h | LH ([2]; day 13 of the cycle, before the progesterone injection, case 1): 5 IU/L | LH ([3]; 17 hours 30 minutes after trigger shot, 5 mg progesterone in oil): 37.01 IU/L | LH ([3]; First follicular ultrasound, before trigger shot): 9.47 IU/L | LH ([3]; Stimulation day 10, before trigger shot): 5.09 IU/L | Ultrasound observation: uterine lining ([3]; day 3 after trigger shot): lining - 15.2 mm | P4 level ([3]; day 5 post trigger): excellent | LH ([3]; day of progesterone trigger shot (stimulation day 12), before the trigger): 4.26 IU/L | Ultrasound observation: uterine lining ([3]; day of progesterone trigger shot, before the trigger): 10C-10D) Uterine lining 8.8 mm | Pregnancy outcome ([3]; period 2 weeks later, 200 mg progesterone vaginal suppository daily from day 7): no pregnancy occurred | Lowest dose reported for induction of a gonadotropins surge ([5]; injected intramuscularly): 10 mg | Time of peak circulating progesterone level post injection ([5]; intramuscular injection): 120 min
